Results reported in PubChem BioAssay AID248 (DTP/NCI, 2004).
Values joined by “and” are separate entries in the source; they are usually repeats but may differ in a detail not shown here. Equal values may be shown once. Toxic doses and inconclusive results are not listed.

System: L1210 leukemia ip in BDF1 mice, survival T/C
Assay: NCI In Vivo Anticancer Drug Screen. Data for tumor model L1210 Leukemia (intraperitoneal) in B6D2F1 (BDF1) mice
Conditions: higher = longer survival
Method in brief: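 Mice bearing the transplanted tumor received compound or vehicle. Survival of the treated group was divided by that of the vehicle-treated control group to give the ratio.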

[1] = endpoint: mean survival time, dose: 100.0 mg/kg/injection, schedule: Q04DX003 (ip), vehicle: Klucel (hydroxypropylcellulose) (HPC)
[2] = endpoint: mean survival time, dose: 200.0 mg/kg/injection, schedule: Q04DX003 (ip), vehicle: Klucel (hydroxypropylcellulose) (HPC)
[3] = endpoint: mean survival time, dose: 400.0 mg/kg/injection, schedule: Q04DX003 (ip), vehicle: Klucel (hydroxypropylcellulose) (HPC)
[4] = endpoint: mean survival time, dose: 100.0 mg/kg/injection, schedule: Q04DX002 (ip), vehicle: Klucel (hydroxypropylcellulose) (HPC)
[5] = endpoint: mean survival time, dose: 200.0 mg/kg/injection, schedule: Q04DX002 (ip), vehicle: Klucel (hydroxypropylcellulose) (HPC)
[6] = endpoint: mean survival time, dose: 100.0 mg/kg/injection, schedule: Q01DX009 (ip), vehicle: Klucel (hydroxypropylcellulose) (HPC)
[7] = endpoint: mean survival time, dose: 200.0 mg/kg/injection, schedule: Q01DX009 (ip), vehicle: Klucel (hydroxypropylcellulose) (HPC)
[8] = endpoint: mean survival time, dose: 400.0 mg/kg/injection, schedule: Q01DX009 (ip), vehicle: Klucel (hydroxypropylcellulose) (HPC)
[9] = endpoint: mean survival time, dose: 400.0 mg/kg/injection, schedule: Q04DX002 (ip), vehicle: Klucel (hydroxypropylcellulose) (HPC)
[10] = endpoint: mean survival time, dose: 100.0 mg/kg/injection, schedule: Q01DX001 (ip), vehicle: carboxymethylcellulose (CMC)
[11] = endpoint: mean survival time, dose: 200.0 mg/kg/injection, schedule: Q01DX001 (ip), vehicle: carboxymethylcellulose (CMC)
[12] = endpoint: mean survival time, dose: 400.0 mg/kg/injection, schedule: Q01DX001 (ip), vehicle: carboxymethylcellulose (CMC)
[13] = endpoint: mean survival time, dose: 50.0 mg/kg/injection, schedule: Q01DX001 (ip), vehicle: carboxymethylcellulose (CMC)

Cc1ccc(CNC(=S)Nc2ccccc2)cc1
T/C (endpoint: mean survival time, dose: 1.56 mg/kg/injection, schedule: Q01DX009 (ip), vehicle: Klucel (hydroxypropylcellulose) (HPC)): 107 % of control
T/C (endpoint: mean survival time, dose: 3.12 mg/kg/injection, schedule: Q01DX009 (ip), vehicle: Klucel (hydroxypropylcellulose) (HPC)): 104 % of control
T/C (endpoint: mean survival time, dose: 6.25 mg/kg/injection, schedule: Q01DX009 (ip), vehicle: Klucel (hydroxypropylcellulose) (HPC)): 96 % of control and 100 % of control
T/C [1]: 96 % of control
T/C [2]: 96 % of control
T/C [3]: 92 % of control

CCCCCCCCN=[N+](C)[O-]
T/C [4]: 97 % of control
T/C [5]: 93 % of control

CC(=O)Nc1ccc(/C=C(\C#N)c2cccc3ccccc23)cc1
T/C [6]: 90 % of control
T/C [7]: 87 % of control
T/C [8]: 88 % of control

Clc1ccc2[nH]ncc2c1
T/C [4]: 88 % of control
T/C [5]: 98 % of control
T/C [9]: 98 % of control

C=C(C)C1C/C(=N\O)C(C)/C(=N/O)C1 (configuration not stated)
T/C (endpoint: mean survival time, dose: 100.0 mg/kg/injection, schedule: Q04DX002 (ip), vehicle: saline with Tween-80): 100 % of control
T/C (endpoint: mean survival time, dose: 200.0 mg/kg/injection, schedule: Q04DX002 (ip), vehicle: saline with Tween-80): 96 % of control
T/C (endpoint: mean survival time, dose: 400.0 mg/kg/injection, schedule: Q04DX002 (ip), vehicle: saline with Tween-80): 93 % of control

Cc1cc2c(cc1C)NC(=O)CC(c1ccccc1)=N2
T/C [10]: 98 % of control
T/C [11]: 93 % of control
T/C [12]: 98 % of control

Cc1ccc2c(c1)[n+]([O-])c(N)c(C#N)[n+]2[O-]
T/C [4]: 102 % of control
T/C [5]: 98 % of control

CC(=S)SCC(C)C
T/C [13]: 101 % of control
T/C [10]: 101 % of control
T/C [11]: 104 % of control
T/C [12]: 93 % of control

O=C1C=C[C@H](O)[C@@]2(CO)O[C@@H]12
T/C (endpoint: median survival time, dose: 0.62 mg/kg/injection, schedule: Q01DX009 (ip), vehicle: saline with Tween-80): 101 % of control
T/C (endpoint: median survival time, dose: 1.25 mg/kg/injection, schedule: Q01DX009 (ip), vehicle: saline with Tween-80): 108 % of control
T/C (endpoint: median survival time, dose: 2.5 mg/kg/injection, schedule: Q01DX009 (ip), vehicle: saline with Tween-80): 113 % of control
T/C (endpoint: median survival time, dose: 5.0 mg/kg/injection, schedule: Q01DX009 (ip), vehicle: saline with Tween-80): 120 % of control
T/C (endpoint: median survival time, dose: 10.0 mg/kg/injection, schedule: Q01DX009 (ip), vehicle: saline with Tween-80): 120 % of control

CCOC(=O)CC1(C)OCC(c2ccccc2)O1 (configuration not stated)
T/C (endpoint: mean survival time, dose: 222.0 mg/kg/injection, schedule: Q01DX Z (ip), vehicle: saline): 106 % of control
T/C (endpoint: mean survival time, dose: 333.0 mg/kg/injection, schedule: Q01DX Z (ip), vehicle: saline): 86 % of control
T/C (endpoint: mean survival time, dose: 500.0 mg/kg/injection, schedule: Q01DX Z (ip), vehicle: saline): 91 % of control

COc1ccc(OCCC(=O)O)cc1
T/C (endpoint: mean survival time, dose: 100.0 mg/kg/injection, schedule: Q01DX001 (ip), vehicle: saline): 90 % of control
T/C (endpoint: mean survival time, dose: 200.0 mg/kg/injection, schedule: Q01DX001 (ip), vehicle: saline): 93 % of control

CN(CCO)Cc1ccc(Cl)cc1
T/C (endpoint: mean survival time, dose: 150.0 mg/kg/injection, schedule: Q01DX015 (ip), vehicle: saline): 91 % of control

CC(=O)c1cccc(NC(=O)Nc2nccs2)c1
T/C (endpoint: mean survival time, dose: 100.0 mg/kg/injection, schedule: Q01DX001 (ip), vehicle: Klucel (hydroxypropylcellulose) (HPC)): 100 % of control
T/C [6]: 101 % of control and 92 % of control
T/C [4]: 101 % of control and 91 % of control
T/C [1]: 101 % of control
T/C (endpoint: mean survival time, dose: 200.0 mg/kg/injection, schedule: Q01DX001 (ip), vehicle: Klucel (hydroxypropylcellulose) (HPC)): 104 % of control
T/C [7]: 104 % of control
T/C [5]: 104 % of control and 109 % of control
T/C [2]: 103 % of control
T/C (endpoint: mean survival time, dose: 400.0 mg/kg/injection, schedule: Q01DX001 (ip), vehicle: Klucel (hydroxypropylcellulose) (HPC)): 96 % of control
T/C [8]: 109 % of control and 88 % of control
T/C [9]: 96 % of control
T/C [3]: 96 % of control

CC(CC(=O)O)c1ccc(C(C)(C)C)cc1 (configuration not stated)
T/C [1]: 95 % of control
T/C [2]: 107 % of control
T/C [3]: 98 % of control

O=C(O)c1ccc(OCCOc2ccc([N+](=O)[O-])cc2)c(Cl)c1
T/C [10]: 95 % of control and 105 % of control
T/C (endpoint: mean survival time, dose: 100.0 mg/kg/injection, schedule: Q01DX009 (ip), vehicle: carboxymethylcellulose (CMC)): 92 % of control and 89 % of control
T/C (endpoint: mean survival time, dose: 100.0 mg/kg/injection, schedule: Q04DX002 (ip), vehicle: gum acacia): 101 % of control
T/C (endpoint: mean survival time, dose: 100.0 mg/kg/injection, schedule: Q04DX003 (ip), vehicle: carboxymethylcellulose (CMC)): 95 % of control and 86 % of control
T/C [11]: 101 % of control and 103 % of control
T/C (endpoint: mean survival time, dose: 200.0 mg/kg/injection, schedule: Q01DX009 (ip), vehicle: carboxymethylcellulose (CMC)): 93 % of control and 100 % of control
T/C (endpoint: mean survival time, dose: 200.0 mg/kg/injection, schedule: Q04DX002 (ip), vehicle: gum acacia): 98 % of control and 99 % of control
T/C (endpoint: mean survival time, dose: 200.0 mg/kg/injection, schedule: Q04DX003 (ip), vehicle: carboxymethylcellulose (CMC)): 95 % of control and 90 % of control
T/C [12]: 100 % of control
T/C (endpoint: mean survival time, dose: 400.0 mg/kg/injection, schedule: Q04DX002 (ip), vehicle: gum acacia): 94 % of control and 98 % of control
T/C (endpoint: mean survival time, dose: 400.0 mg/kg/injection, schedule: Q04DX003 (ip), vehicle: carboxymethylcellulose (CMC)): 90 % of control and 91 % of control

CCCCCCCCCCCCCCCCCC1=Nc2cc(C)c(C)cc2NC(=O)C1
T/C [10]: 93 % of control
T/C [11]: 88 % of control
T/C [12]: 86 % of control

CCOC1c2cc(OC)ccc2C(=O)CCN1S(=O)(=O)c1ccc(C)cc1 (configuration not stated)
T/C [1]: 92 % of control
T/C [2]: 91 % of control
T/C [3]: 96 % of control

N=C(N)Cc1ccc(NC(=O)c2ccc(C(=O)Nc3ccc(CC(=N)N)cc3)cc2)cc1
T/C (endpoint: mean survival time, dose: 3.75 mg/kg/injection, schedule: Q01DX Z (ip), vehicle: methylcellulose (MC)): 108 % of control
T/C (endpoint: mean survival time, dose: 3.75 mg/kg/injection, schedule: Q01DX Z (ip), vehicle: saline): 89 % of control
T/C (endpoint: mean survival time, dose: 7.5 mg/kg/injection, schedule: Q01DX Z (ip), vehicle: methylcellulose (MC)): 108 % of control
T/C (endpoint: mean survival time, dose: 15.0 mg/kg/injection, schedule: Q01DX Z (ip), vehicle: saline): 155 % of control
T/C (endpoint: mean survival time, dose: 15.0 mg/kg/injection, schedule: Q01DX Z (oral), vehicle: saline): 105 % of control
T/C (endpoint: mean survival time, dose: 16.5 mg/kg/injection, schedule: Q01DX009 (ip), vehicle: saline with Tween-80): 171 % of control
T/C (endpoint: mean survival time, dose: 22.0 mg/kg/injection, schedule: Q01DX001 (ip), vehicle: carboxymethylcellulose (CMC)): 107 % of control and 109 % of control
T/C (endpoint: mean survival time, dose: 25.0 mg/kg/injection, schedule: Q01DX009 (ip), vehicle: saline with Tween-80): 219 % of control
T/C (endpoint: mean survival time, dose: 25.0 mg/kg/injection, schedule: Q01DX009 (ip), vehicle: saline): 174 % of control
T/C (endpoint: mean survival time, dose: 25.0 mg/kg/injection, schedule: Q04DX003 (ip), vehicle: saline): 107 % of control
T/C (endpoint: mean survival time, dose: 30.0 mg/kg/injection, schedule: Q01DX Z (ip), vehicle: methylcellulose (MC)): 116 % of control
T/C (endpoint: mean survival time, dose: 30.0 mg/kg/injection, schedule: Q01DX Z (ip), vehicle: saline): 103 % of control and 113 % of control
T/C (endpoint: mean survival time, dose: 30.0 mg/kg/injection, schedule: Q01DX Z (oral), vehicle: saline): 102 % of control
T/C (endpoint: mean survival time, dose: 33.0 mg/kg/injection, schedule: Q01DX001 (ip), vehicle: carboxymethylcellulose (CMC)): 112 % of control
T/C (endpoint: mean survival time, dose: 33.0 mg/kg/injection, schedule: Q04DX003 (ip), vehicle: saline): 107 % of control
T/C (endpoint: mean survival time, dose: 37.5 mg/kg/injection, schedule: Q01DX009 (ip), vehicle: saline with Tween-80): 120 % of control
T/C [13]: 117 % of control
T/C (endpoint: mean survival time, dose: 60.0 mg/kg/injection, schedule: Q01DX Z (oral), vehicle: saline): 108 % of control and 109 % of control
T/C (endpoint: mean survival time, dose: 75.0 mg/kg/injection, schedule: Q04DX003 (ip), vehicle: saline): 183 % of control
T/C (endpoint: mean survival time, dose: 100.0 mg/kg/injection, schedule: Q04DX003 (ip), vehicle: saline): 120 % of control
T/C (endpoint: mean survival time, dose: 120.0 mg/kg/injection, schedule: Q01DX Z (oral), vehicle: saline): 103 % of control and 108 % of control
T/C (endpoint: mean survival time, dose: 240.0 mg/kg/injection, schedule: Q01DX Z (oral), vehicle: saline): 112 % of control
T/C (endpoint: mean survival time, dose: 480.0 mg/kg/injection, schedule: Q01DX Z (oral), vehicle: saline): 106 % of control
